Measured values: patent US8557532B2, “Diagnosis and treatment of drug-resistant Ewing'S sarcoma” (The University of Utah Research Foundation, priority 2010, dated 2013)

Assays:
[1] = tested on: Ewing's sarcoma cells with decreased levels of GSTM4; test: MTT survival assay, wild-type (luc-RNAi) versus reduced GSTM4 (GSTM4-4-RNAi) Ewing's sarcoma cells; assay type: cell-based, human
Experimental: Chemotherapeutic sensitivity assays. The sensitivity of Ewing's sarcoma cells to chemotherapeutic agents was determined via the following experimental procedures. The indicated Ewing's sarcoma cells were seeded at a density of 2×10^4 cells/well in 24-well plates on day-0. On day 1, cells were incubated with varying concentrations of the indicated drug or drugs for 3 days. Subsequently, MTT cell proliferation assays were performed according to the manufacturer's instructions (Cayman Chemical Company, Ann Arbor, Mich.).
To test whether GSTM4 contributed to the chemotherapeutic resistance profile of Ewing's sarcoma, wild-type (luc-RNAi) and reduced GSTM4 (GSTM4-4-RNAi) cells were treated with increasing dosages of chemotherapeutic drugs and tested using MTT survival assays. The chemotherapeutic agents that were tested included etoposide, doxorubicin, and melphalan.
It was further determined that GSTM4 can alter the sensitivity of Ewing's sarcoma cells for fenretinide. […] It was further determined that decreased GSTM4 levels can change intracellular redox potential.
JS-K (provided by Dr. Paul Shami at the University of Utah) is a GST-activated prodrug with potent anti-neoplastic activity. A673, Ewing's sarcoma, cells with wild type (Luc-RNAi) or decreased GSTM4 levels (GSTM4-RNAi infected cells) were seeded in 24-well plates at a density of 2×10^4 cells/well. GSTM4 decreased cells or negative controls were treated with increasing concentrations of JS-K (0, 0.3125, 0.625, 1.25, 2.5, 5, or 10 μM) for 72 hours, followed by an MTT cell viability analysis.

A673 cells = test: MTT cell proliferation assay in A673 Ewing's sarcoma cells; assay type: cell-based; details: Homo sapiens, 72 h, 3 days, read-out: IC50, inhibition of A673 cell proliferation
Experimental: The A673 cells were seeded at a density of 2×10^4 cells/well in 24-well plate on day 0.

| IC50 (A673 cells) [nM] | Compound | Sensitivity of cells with decreased GSTM4 levels to the drug compared to control cells [1] |
| --- | --- | --- |
|  | CCOC(=O)N1CCN(/[N+]([O-])=N/Oc2ccc([N+](=O)[O-])cc2[N+](=O)[O-])CC1 [JS-K, O^2-(2,4-Dinitrophenyl)1-[(4-Ethoxycarbonyl)piperazin-1-yl]diazen-1-ium-1,2-diolate] | less sensitive |
| 500 | O=[N+]([O-])c1ccc(SCCCCCCO)c2nonc12 [NBDHEX, 6-(7-nitro-2,1,3-benzoxadiazol-4-ylthio) hexanol] |  |
|  | COc1cccc2c1C(=O)c1c(O)c3c(c(O)c1C2=O)C[C@@](O)(C(=O)CO)C[C@@H]3O[C@H]1C[C@H](N)[C@H](O)[C@H](C)O1 [doxorubicin] | not sensitive |
|  | COc1cc([C@@H]2c3cc4c(cc3[C@@H](O[C@@H]3O[C@@H]5CO[C@@H](C)O[C@H]5[C@H](O)[C@H]3O)[C@H]3COC(=O)[C@H]23)OCO4)cc(OC)c1O [etoposide] | increase in sensitivity |
|  | CC1=C(/C=C/C(C)=C/C=C/C(C)=C/C(=O)Nc2ccc(O)cc2)C(C)(C)CCC1 [fenretinide] | more sensitive |
